In patent publication US20090275574A1, “NOVEL COMPOUNDS-300” (ASTRAZENECA AB, priority 2008, published 2009):

Assays:
cloned human M2 receptor = target: T1, cloned human M2 receptor (Homo sapiens, UniProt P08172); experiment: hM2 receptor GTPγS binding; type: biochemical; details: CHO membranes expressing hM2, [35S]GTPγS binding
T1 construct: purchased Perkin-Elmer RBHM2M; host or cells: Chinese hamster ovary cells (CHO), membranes
T1 sequence (P08172 1-466): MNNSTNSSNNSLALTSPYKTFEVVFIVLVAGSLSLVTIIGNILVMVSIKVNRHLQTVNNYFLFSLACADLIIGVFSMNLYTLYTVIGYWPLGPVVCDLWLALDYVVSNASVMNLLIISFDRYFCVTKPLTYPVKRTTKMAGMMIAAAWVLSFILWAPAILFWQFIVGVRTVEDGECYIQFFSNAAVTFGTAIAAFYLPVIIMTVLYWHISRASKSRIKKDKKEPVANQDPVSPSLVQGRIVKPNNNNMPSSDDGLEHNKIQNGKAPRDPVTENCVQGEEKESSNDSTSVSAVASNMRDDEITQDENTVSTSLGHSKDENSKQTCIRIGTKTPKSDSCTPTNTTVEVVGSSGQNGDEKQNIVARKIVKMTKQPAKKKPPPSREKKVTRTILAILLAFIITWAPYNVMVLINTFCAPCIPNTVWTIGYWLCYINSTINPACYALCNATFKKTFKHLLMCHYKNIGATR
Method: hM2 Receptor GTPγS Binding Membranes produced from Chinese hamster ovary cells (CHO) expressing the cloned human M2 receptor (human Muscarinic receptor subtype 2, gene bank access NM_000739), are obtained from Perkin-Elmer (RBHM2M). The membranes are thawed at 37° C., passed 3 times through a 23-gauge blunt-end needle, diluted in the GTPγS binding buffer (50 mM Hepes, 20 mM NaOH, 100 mM NaCl, 1 mM EDTA, 5 mM MgCl2, pH 7.4, 100 μM DTT). The EC50, IC50 and Emax of the compounds of the invention are evaluated from 10-point dose-response curves (three fold concentration range) done in 60 μl in 384-well non-specific binding surface plate (Corning). Ten microliters from the dose-response curves plate (5× concentration) are transferred to another 384 well plate containing 25 μl of the following: 5 μg of hM2 membranes, 500 μg of Flashblue beads (Perkin-Elmer) and GDP 25 μM. An additional 15 μl containing 3.3× (60,000 dpm) of GTPγ^35S (0.4 nM final) are added to the wells resulting in a total well volume of 50 μl. Basal and maximal stimulated [^35S]GTPγS binding are determined in absence and presence of 30 μM final of acetylcholine agonist. The membranes/beads mix are pre-incubated for 15 minutes at room temperature with 25 μM GDP prior to distribution in plates (12.5 μM final). The reversal of acetylcholine-induced stimulation (2 μM final) of [^35S]GTPγS binding is used to assay the antagonist properties (IC50) of the compounds. The plates are incubated for 60 minutes at room temperature then centrifuged at 400 rpm for 5 minutes. The radioactivity (cpm) is counted in a Trilux (Perkin-Elmer). Values of EC50, IC50 and Emax are obtained using sigmoidal fits of a non-linear curve-fitting program (XLfit version 4.2.2 Excel add-in version 4.2.2 build 18 math 1Q version 2.1.2 build 18) of percent stimulated [^35S]GTPγS binding vs. log(molar ligand). All pEC50 and pIC50 values are reported as arithmetic means±standard error of mean of ‘n’ independent experiments.

[1] = target: T2, hM3 (human Muscarinic receptor subtype 3) (Homo sapiens, UniProt P20309); experiment: Human M3 calcium mobilization FLIPR assay; type: cell-based; details: hM3 expressed in CHO cells, intracellular Ca2+ release (FLIPR)
T2 construct: expressed in transfected cells; host or cells: CHO cells (ATCC)
T2 sequence (P20309 whole entry): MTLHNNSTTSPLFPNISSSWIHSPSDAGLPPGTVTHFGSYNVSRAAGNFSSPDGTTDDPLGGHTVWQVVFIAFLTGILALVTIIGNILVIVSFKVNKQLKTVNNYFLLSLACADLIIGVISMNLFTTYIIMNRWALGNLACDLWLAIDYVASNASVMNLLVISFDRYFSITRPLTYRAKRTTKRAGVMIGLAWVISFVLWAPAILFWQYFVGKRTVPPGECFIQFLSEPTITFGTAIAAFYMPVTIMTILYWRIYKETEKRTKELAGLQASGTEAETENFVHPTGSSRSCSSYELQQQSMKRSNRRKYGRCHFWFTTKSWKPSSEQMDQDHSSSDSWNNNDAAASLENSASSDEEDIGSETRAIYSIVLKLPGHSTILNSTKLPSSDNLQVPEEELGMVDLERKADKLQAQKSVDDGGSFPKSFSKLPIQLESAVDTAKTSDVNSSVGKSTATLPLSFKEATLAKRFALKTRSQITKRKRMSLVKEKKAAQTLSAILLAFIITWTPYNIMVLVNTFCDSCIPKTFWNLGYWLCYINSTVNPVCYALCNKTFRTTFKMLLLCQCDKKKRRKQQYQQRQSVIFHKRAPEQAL
Method: Human M1, rat M1, Human M3 and Human M5 Calcium Mobilization FLIPR™ Assay The compound activity in the present invention (EC50 or IC50) is measured using a 384 plate-based imaging assay that monitors drug induced intracellular Ca^2+ release in whole cells. Activation of hM1 (human Muscarinic receptor subtype 1, gene bank access NM_000738), rM1 (rat Muscarinic receptor subtype 1, gene bank access NM_080773), hM3 (human Muscarinic receptor subtype 3, gene bank access NM_000740NM_000740) and hM5 (human Muscarinic receptor subtype 5, gene bank access NM_0121258), receptors expressed in CHO cells (Chinese hamster ovary cells, ATCC) is quantified in a Molecular Devices FLIPR IITM instrument as an increase in fluorescent signal. Inhibition of hM3 and hM5 by compounds is determined by the decrease in fluorescent signal in response to 2 nM acetylcholine activation. […] Prior to experiment, the cell culture medium is removed from the plates by inversion. […] Plates are incubated at 37° C. for 60 minutes prior to start the experiment. The incubation is terminated by washing the cells four times in assay buffer, leaving a residual 25 μl buffer per well. Cell plates are then transferred to the FLIPR, ready for compound additions. The day of experiment, acetylcholine and compounds are diluted in assay buffer in three-fold concentration range (10 points serial dilution) for addition by FLIPR instrument. For all calcium assays, a baseline reading is taken for 10 seconds followed by the addition of 12.5 μl of compounds, resulting in a total well volume of 37.5 μl. Data is collected every second for 60 pictures and then every 6 seconds for 20 pictures prior to the addition of agonist. For hM3 and hM5, before agonist addition, a second baseline reading is taken for 10 seconds followed by the addition of 12.5 μl of agonist or buffer, producing a final volume of 50 μl. After agonist stimulation, the FLIPR continues to collect data every second for 60 pictures and then every 6 seconds for 20 pictures. The fluorescence emission is read using filter 1 (emission 510-570 nm) by the FLIPR on board CCD camera. Calcium mobilization output data are calculated as the maximal relative fluorescence unit (RFU) minus the minimal value for both compound and agonist reading frame (except for hM1 and rM1 using only the maximal RFU). Data are analyzed using sigmoidal fits of a non-linear curve-fitting program (XLfit version 4.2.2 Excel add-in version 4.2.2 build 18 math 1Q version 2.1.2 build 18). All pEC50 and pIC50 values are reported as arithmetic means±standard error of mean of ‘n’ independent experiments.

| SMILES | EC50 (cloned human M2 receptor) [µM] | EC50 [1] [µM] |
| --- | --- | --- |
| O=C1CO[C@H]2CCCC[C@@H]2N1C1CCN(C2CCC(COCC3CC3)CC2)CC1 (single isomer, unassigned) [Example 23] | > 1.2 |  |
| CC(C)OCC1CCC(N2CCC(N3C(=O)CO[C@H]4CCC(F)(F)C[C@@H]43)CC2)CC1 (single isomer, unassigned) [Example 38] | > 10 | > 40 |
| CC(C)OCC1CCC(N2CCC(N3C(=O)CO[C@H]4CCCC[C@@H]43)CC2)CC1 (single isomer, unassigned) [Example 19] | 8.7 | > 40 |
| CCOCC1CCC(N2CCC(N3C(=O)CO[C@H]4CCCC[C@@H]43)CC2)C1 (single isomer, unassigned) [Example 44] | 1.6 | > 10 |
| O=C1CO[C@H]2CCCC[C@@H]2N1C1CCN(C2CCC(COCC(F)F)CC2)CC1 (single isomer, unassigned) [Example 26] | > 3.6 | > 40 |
| CC(C)OCC1CCC(N2CCC(N3C(=O)CO[C@H]4CCCC[C@@H]43)CC2)CC1 (mixture of isomers) [Example 15, (4aS,8aS)-4-(1-(4-(isopropoxymethyl)cyclohexyl)piperidin-4-yl)hexahydro-2H-benzo[b][1,4]oxazin-3(4H)-one] | 3.5 | > 40 |
| O=C1CO[C@H]2CCCC[C@@H]2N1C1CCN(C2CCC(COCCF)CC2)CC1 (single isomer, unassigned) [Example 24] | > 5.7 | > 40 |
| O=C1CO[C@H]2CCCC[C@@H]2N1C1CCN(C2CC(COCC3CCC3)C2)CC1 (single isomer, unassigned) [Example 40] | 4.4 |  |
| CC(C)OCC1CCC(N2CCC(N3C(=O)CO[C@H]4CCCC[C@@H]43)CC2)CC1 (single isomer, unassigned) [Example 18] | 3.5 | > 40 |
| CCOCC1CCC(N2CCC(N3C(=O)CO[C@H]4CCCC[C@@H]43)CC2)C1 (single isomer, unassigned) [Example 45] | 6.1 | > 40 |
| CCCOCC1CCC(N2CCC(N3C(=O)NC[C@H]4CCCC[C@@H]43)CC2)CC1 (single isomer, unassigned) [Example 01] | 7.7 | > 40 |
| CCOCC1CCC(N2CCC(N3C(=O)NC[C@H]4CCCC[C@@H]43)CC2)CC1 (mixture of isomers) [Example 08, (4aR,8aS)-1-(1-(4-(ethoxymethyl)cyclohexyl)piperidin-4-yl)octahydroquinazolin-2(1H)-one] | 0.35 | 1.1 |
| O=C1CO[C@H]2CCCC[C@@H]2N1C1CCN(C2CCC(COCC(F)F)CC2)CC1 (single isomer, unassigned) [Example 27] | 0.87 | > 40 |
| CCOC[C@H]1CC[C@@H](N2CCC(N3C(=O)CO[C@H]4CCCC[C@@H]43)CC2)C1 [Example 42, (4aS,8aS)-4-(1-((1R,3S)-3-(ethoxymethyl)cyclopentyl)piperidin-4-yl)hexahydro-2H-benzo[b][1,4]oxazin-3(4H)-one] | 1.6 | > 2.1 |
| CC(C)OCC1CCC(N2CCC(N3C(=O)NC[C@H]4CCCC[C@@H]43)CC2)CC1 (single isomer, unassigned) [Example 04] | 0.66 | 5.1 |
| CC(C)OCC1CCC(N2CCC(N3C(=O)CO[C@H]4CCC(F)(F)C[C@@H]43)CC2)CC1 (single isomer, unassigned) [Example 37] | > 13 | > 40 |
| CCOCC1CCC(N2CCC(N3C(=O)CO[C@H]4CCCC[C@@H]43)CC2)CC1 (single isomer, unassigned) [Example 14] | 2.8 | > 40 |
| CCCOC1CCC(N2CCC(N3C(=O)CO[C@H]4CCCC[C@@H]43)CC2)CC1 (single isomer, unassigned) [Example 17] | > 48 |  |
| CCCOC1CCC(N2CCC(N3C(=O)NC[C@H]4CCCC[C@@H]43)CC2)CC1 (single isomer, unassigned) [Example 06] | 2.5 |  |
| O=C1CO[C@H]2CCCC[C@@H]2N1C1CCN(C2CCC(COCC3CC3)CC2)CC1 (single isomer, unassigned) [Example 22] | 1 |  |
| O=C1CO[C@H]2CCCC[C@@H]2N1C1CCN(C2CCC(COCCF)CC2)CC1 (single isomer, unassigned) [Example 25] | > 2.7 | > 40 |
| CCOCC1CC(N2CCC(N3C(=O)CO[C@H]4CCCC[C@@H]43)CC2)C1 (single isomer, unassigned) [Example 39] | 5 | > 40 |
| O=C1COC2CCCC2N1C1CCN([C@H]2CC[C@@H](COCC3CC3)CC2)CC1 (single isomer, unassigned) [Example 48] | 2.2 | > 40 |
| O=C1NC[C@H]2CCCC[C@@H]2N1C1CCN(C2CCC(COCC(F)F)CC2)CC1 (single isomer, unassigned) [Example 51] | 3 | > 40 |
| CCOC[C@@H]1CC[C@H](N2CCC(N3C(=O)CO[C@H]4CCCC[C@@H]43)CC2)C1 [Example 43, (4aS,8aS)-4-(1-((1S,3R)-3-(ethoxymethyl)cyclopentyl)piperidin-4-yl)hexahydro-2H-benzo[b][1,4]oxazin-3(4H)-one] | > 3.9 | > 40 |
| CCOCC1CCC(N2CCC(N3C(=O)CO[C@H]4CCCC[C@@H]43)CC2)CC1 (single isomer, unassigned) [Example 13] | > 21 | > 40 |
| CCCOCC1CCC(N2CCC(N3C(=O)NC[C@H]4CCCC[C@@H]43)CC2)CC1 (single isomer, unassigned) [Example 02] | 0.24 | 1.6 |
